{"source": "patent US20060263870A1", "about": "“Hydrocarbon processing method and hydrocarbon processing system” (NIHON UNIVERSITY, priority 2005, published 2006)", "type_in_all_cases": "cell-based", "key": {"[1]": {"test_system": "Rhodococcus erythropolis PR-4", "test": "Treatment of various hydrocarbons: growth and localization of PR-4 in organic solvent/IB medium bilayer culture", "conditions": "hydrocarbon 5% (v/v) in IB medium, 28° C., 110 rpm, third day of culturing", "protocol": "(§1) IB liquid medium was prepared as shown below.\n(§2) As n-alkanes, n-hexane (C6), n-octane (C8), n-nonane (C9), n-decane (C10), n-undecane (C11), n-dodecane (C12), n-tridecane (C13), n-tetradecane (C14), n-pentadecane (C15), n-hexadecane (C16), n-heptadecane (C17), and n-octadecane (C18) were used.\n(§3) As test strains, Rhodococcus erythropolis PR-4 and Rhodococcus rhodochrous S-2 were used.\n(§4) On the third day after the start of culturing, the growth status of the test bacteria and sites where the test bacteria had localized were observed. When the test bacteria were present in the organic solvent, they were labeled “inside” and when they were present on the surface of the organic solvent, they were labeled “surface.” The results are shown in Table 1."}, "[2]": {"test_system": "Rhodococcus rhodochrous S-2", "test": "Treatment of various hydrocarbons: growth and localization of S-2 in organic solvent/IB medium bilayer culture", "conditions": "hydrocarbon 5% (v/v) in IB medium, 28° C., 110 rpm, third day of culturing", "protocol": "as §1, §2, §3, §4"}, "[3]": {"test_system": "Rhodococcus erythropolis PR-4", "test": "Investigation of Rhodococcus erythropolis PR-4 adaptation (two-stage culture with different hydrocarbons)", "parameters": "key: ±: growth is shown at interface of hydrocarbon and IB liquid culture medium; +: growth is shown in hydrocarbon", "conditions": "pristane (C19) into dodecane (C12): PR-4 first cultured 3 days with pristane, then with dodecane 5% (v/v); third day"}}}
{"molecule": "CCCCCCCCCCCCCC", "note": "[n-tetradecane]", "values": [{"measurement": "PR-4 growth", "setting": "[1]", "result": "+"}, {"measurement": "S-2 growth", "setting": "[2]", "result": "±"}]}
{"molecule": "CCCCCC", "note": "[n-hexane]", "values": [{"measurement": "PR-4 growth", "setting": "[1]", "result": "−"}, {"measurement": "S-2 growth", "setting": "[2]", "result": "−"}]}
{"molecule": "CCCCCCCCCCCC", "note": "[n-dodecane]", "values": [{"measurement": "PR-4 growth", "setting": "[1]", "result": "±"}, {"measurement": "S-2 growth", "setting": "[2]", "result": "−"}, {"measurement": "growth", "setting": "[3]", "result": "+"}]}
{"molecule": "CCCCCCCCCC", "note": "[n-decane]", "values": [{"measurement": "PR-4 growth", "setting": "[1]", "result": "±"}, {"measurement": "S-2 growth", "setting": "[2]", "result": "−"}]}
{"molecule": "CCCCCCCCCCCCCCCC", "note": "[n-hexadecane]", "values": [{"measurement": "PR-4 growth", "setting": "[1]", "result": "+"}, {"measurement": "S-2 growth", "setting": "[2]", "result": "±"}]}
{"molecule": "CC(C)CCCC(C)CCCC(C)CCCCC(C)CCCC(C)CCCC(C)C", "note": "(stereo not drawn) [n-squalane, squalane]", "values": [{"measurement": "PR-4 growth", "setting": "[1]", "result": "+"}, {"measurement": "S-2 growth", "setting": "[2]", "result": "±"}]}
{"molecule": "CCCCCCCC", "note": "[n-octane]", "values": [{"measurement": "PR-4 growth", "setting": "[1]", "result": "−"}, {"measurement": "S-2 growth", "setting": "[2]", "result": "−"}]}
